Data from US9464055B2, “Quinoline derivatives useful as CB-1 inverse agonists” (JANSSEN PHARMACEUTICA NV, priority 2014, dated 2016).
pEC50, pIC50: −log10 of the molar value.

target: hCB1-CHO-K1 membranes (Homo sapiens, UniProt P21554); assay: CB-1 membrane binding assay ([3H] CP 55,940 displacement); details: not given
Sequence (P21554 whole entry): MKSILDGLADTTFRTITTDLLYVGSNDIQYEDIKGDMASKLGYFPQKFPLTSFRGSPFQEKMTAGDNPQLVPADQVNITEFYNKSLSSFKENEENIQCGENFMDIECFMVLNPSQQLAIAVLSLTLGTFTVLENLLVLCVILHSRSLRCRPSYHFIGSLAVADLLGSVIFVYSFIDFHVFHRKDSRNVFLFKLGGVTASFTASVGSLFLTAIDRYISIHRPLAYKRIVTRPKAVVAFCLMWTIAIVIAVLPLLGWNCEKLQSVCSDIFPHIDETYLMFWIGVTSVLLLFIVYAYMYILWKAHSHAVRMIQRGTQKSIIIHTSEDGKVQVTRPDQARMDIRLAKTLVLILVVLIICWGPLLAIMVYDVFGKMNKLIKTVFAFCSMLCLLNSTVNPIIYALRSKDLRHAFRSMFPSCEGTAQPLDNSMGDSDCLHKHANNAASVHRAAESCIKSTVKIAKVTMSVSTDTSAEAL

| SMILES | pIC50 |
| --- | --- |
| O=c1cc(CCc2cccc(Cl)c2)c2cc(C(O)(c3ccc(Cl)cc3)c3nccs3)ccc2[nH]1 (stereo not shown) [Compound 8, 4-(3-chlorophenethyl)-6-((4-chlorophenyl)(hydroxy)(thiazol-2-yl)methyl)quinolin-2(1H)-one] | < 5.60 |
| Cn1c(=O)cc(CCc2cccc(Cl)c2)c2cc(C(c3ccc(Cl)cc3)c3nccs3)ccc21 (stereo not shown) [Compound 9, 4-(3-chlorophenethyl)-6-((4-chlorophenyl)(thiazol-2-yl)methyl)-1-methylquinolin-2(1H)-one] | < 5.60 |
| O=c1cc(CCc2cccc(Cl)c2)c2cc(C(c3ccc(Cl)cc3)c3nccs3)ccc2[nH]1 (stereo not shown) [Compound 11, 4-(3-chlorophenethyl)-6-((4-chlorophenyl)(thiazol-2-yl)methyl)quinolin-2(1H)-one] | 6.48 |
| OC(c1ccc(Cl)cc1)(c1ccc(Cl)cc1)c1ccc2nccc(/C=C/c3ccccc3)c2c1 [Compound 501, (E)-bis(4-chlorophenyl)(4-styrylquinolin-6-yl)methanol] | 7.28 |
| Clc1ccc(C(c2ccc(Cl)cc2)c2ccc3nccc(/C=C/c4ccccc4)c3c2)cc1 [Compound 503, (E)-6-(bis(4-chlorophenyl)methyl)-4-styrylquinoline] | 8.39 |
| COc1ccc(C(O)(c2ccc3nccc(/C=C/c4ccccc4)c3c2)c2nccs2)cc1 (stereo not shown) [Compound 504, (E)-(4-methoxyphenyl)(4-styrylquinolin-6-yl)(thiazol-2-yl)methanol] | 5.73 |
| OC(c1ccc(Cl)cc1)(c1ccc2nccc(/C=C/c3ccccc3)c2c1)c1cccs1 (stereo not shown) [Compound 506, (4-Chlorophenyl){4-[(E)-2-phenylethenyl]quinolin-6-yl}thiophen-2-ylmethanol] | 7.00 |

target: T1, Human CB2R (Cannabinoid receptor 2) (Homo sapiens, UniProt P34972); assay: CB-2 in vitro cAMP (HTRF) functional assay; type: cell-based; details: mean where tested more than once
T1 construct: host or cells: HEK-293
From the text: CB1 and CB2 receptors are Gi-coupled GPCR. Activation of CB1 and CB2 receptors results in a decrease in cAMP production. An inverse agonist of the CB1 or CB2 receptor results in the opposite effect, an increase of cAMP production. The principle of this assay is based on HTRF® technology (Homogeneous Time-Resolved Fluorescence). The method is a competitive immunoassay between native cAMP produced by cells and the cAMP labeled with the fluorophore d2. The tracer binding is quantified by a Mab anti-cAMP labeled with Eu3+ TBP-NHS Cryptate (supplied as part of the assay kit). The specific signal (i.e. energy transfer) is inversely proportional to the concentration of cAMP in the standard or sample.
Human CB1R (Cannabinoid receptor 1) was stably transfected in HEK-293 cells (DiscoveRx, cat: 93-0200C1). Human CB2R (Cannabinoid receptor 2) was stably transfected in HEK-293 cells (DiscoveRx, cat: 93-0201C1). Cell cultures were maintained in media: DMEM (Invitrogen Cat#12430-054) supplemented with 10% HI FBS (Invitrogen Cat#16140-071), 1% L-glutamine (Invitrogen Cat#25030-081), 0.2 mg/ml Hygromycin B (Invitrogen Cat#10687-010), 600 μg/mL G418 (Invitrogen Cat#10131-035), and 1× Penn/Strep (Invitrogen 15140-122). After cell expansion, aliquots were cryo-stored in media containing 5% DMSO (Pierce Cat#20684).
One day prior to experiments media was warmed to 37° C. and the cryo-stored cells were thawed in a 37° C. water bath. The cells were then added to media (10× volume) and the mixture was centrifuged at 1000 RPM for 5 min. The supernate was removed and the cells were re-suspended in media. A sample of the cell suspension was evaluated on a Cedex XS automated cell counter (Innovatis Systems) to determine viable cells/ml. Additional media was added to the cells to achieve a final cell density of 4E5 cells/mL. The cells were then plated into 384 well PDL white solid bottom plates (Greiner, Cat#781945) at 20 μL per well using a Multidrop (Thermo Scientific). Cells were removed from Row P (location of cAMP standards). Two columns of cells were plated into a clear bottom 384 well PDL coated plate (Greiner, Cat#781944) to view confluence the day of the assay. The cell plates were lidded and stored for 15 minutes in a hood, then transferred to an incubator (37° C., 5% CO2, 95% humidity) overnight.
DMSO was added to all wells of 384 well V bottom polystyrene plate (Greiner, Cat#781280) except to columns 1 and 13, rows O and P and wells M13-M23 and N13-N23. Test compounds (60 μL, 10 mM) were added to Column 1 and 13 (A1 through N1 and A13 through L13). Test compounds were serially diluted 1/3 by transferring and mixing 20 μl sample with 40 μL DMSO.
DMSO (40 μL) was added to wells of 384 well V bottom polystyrene plate: O2 through O11, M14 through M23, N14 through N23, and O14 through O23. AM630 (also known as [6-iodo-2-methyl-1-[2-(4-morpholinyl)ethyl]-1H-indol-3-yl](4-methoxyphenyl)-methanone, Cayman Chemical, Cat#10006974) (60 μL, 10 mM) was added to O1; and 1-(2,4-dichlorophenyl)-7-[(4-fluorophenyl)methylene]-4,5,6,7-tetrahydro-N-1-piperidinyl-1H-indazole-3-carboxamide (60 μL, 10 mM) was added to N13. The control was serially diluted 1/3 by transferring and mixing 20 μl sample with 40 μL DMSO. This process resulted 11 doses per control, 10 mM to […].
Cells plated the day prior to the assay in clear bottom plates were viewed on an inverse microscope to ensure confluency in the range of 60-75%. […]

T1 sequence (P34972 whole entry): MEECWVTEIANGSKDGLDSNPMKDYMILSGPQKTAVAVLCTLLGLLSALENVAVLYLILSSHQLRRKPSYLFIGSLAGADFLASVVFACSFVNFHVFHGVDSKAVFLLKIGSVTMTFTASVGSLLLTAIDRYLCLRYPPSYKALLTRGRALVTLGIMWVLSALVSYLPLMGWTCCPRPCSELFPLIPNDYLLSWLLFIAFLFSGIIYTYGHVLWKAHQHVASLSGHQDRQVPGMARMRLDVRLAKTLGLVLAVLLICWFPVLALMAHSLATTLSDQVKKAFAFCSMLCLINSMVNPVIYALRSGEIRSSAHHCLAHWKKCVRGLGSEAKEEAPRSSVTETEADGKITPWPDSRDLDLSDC

| SMILES | pEC50 |
| --- | --- |
| COCCn1c(=O)cc(NC2CCN(S(=O)(=O)C(F)(F)F)CC2)c2cc(C(c3ccc(Cl)cc3)c3ccc(Cl)cc3)ccc21 [Compound 110, 6-(bis(4-chlorophenyl)methyl)-1-(2-methoxyethyl)-4-((1-((trifluoromethyl)sulfonyl)piperidin-4-yl)amino)quinolin-2(1H)-one] | < 5.00 |
| NC(=O)COc1ccc(Nc2cc(=O)[nH]c3ccc(C(c4ccc(Cl)cc4)c4ccc(Cl)cc4)cc23)cc1 [Compound 111, 2-(4-((6-(bis(4-chlorophenyl)methyl)-2-oxo-1,2-dihydroquinolin-4-yl)amino)phenoxy)acetamide] | < 5.00 |
| NC(=O)CCC(=O)N1CCC(Nc2cc(=O)[nH]c3ccc(C(c4ccc(Cl)cc4)c4ccc(Cl)cc4)cc23)CC1 [Compound 112, 4-[4-({6-[Bis(4-chlorophenyl)methyl]-2-oxo-1,2-dihydroquinolin-4-yl}amino)piperidin-1-yl]-4-oxobutanamide] | < 5.00 |
| CC(C)(C)OC(=O)CCN1CCC(Nc2cc(=O)[nH]c3ccc(C(c4ccc(Cl)cc4)c4ccc(Cl)cc4)cc23)CC1 [Compound 114, tert-butyl 3-(4-((6-(bis(4-chlorophenyl)methyl)-2-oxo-1,2-dihydroquinolin-4-yl)amino)piperidin-1-yl)propanoate] | < 5.00 |
| O=C(O)CN1CCC(Nc2cc(=O)[nH]c3ccc(C(c4ccc(Cl)cc4)c4ccc(Cl)cc4)cc23)CC1 [Compound 117, [4-({6-[Bis(4-chlorophenyl)methyl]-2-oxo-1,2-dihydroquinolin-4-yl}amino)piperidin-1-yl]acetic acid] | < 5.00 |
| CC(C)(C)OC(=O)/N=C(/NC(=O)OC(C)(C)C)N1CCC(Nc2cc(=O)[nH]c3ccc(C(c4ccc(Cl)cc4)c4ccc(Cl)cc4)cc23)CC1 [Compound 119, (Z)-tert-butyl ((4-((6-(bis(4-chlorophenyl)methyl)-2-oxo-1,2-dihydroquinolin-4-yl)amino)piperidin-1-yl)((tert-butoxycarbonyl)imino)methyl)carbamate] | < 5.00 |
| O=C(O)CCCOc1ccc(Nc2cc(=O)[nH]c3ccc(C(c4ccc(Cl)cc4)c4ccc(Cl)cc4)cc23)cc1 [Compound 121, 4-[4-({6-[Bis(4-chlorophenyl)methyl]-2-oxo-1,2-dihydroquinolin-4-yl}amino)phenoxy]butanoic acid] | < 5.00 |
| NC(=O)CCCOc1ccc(Nc2cc(=O)[nH]c3ccc(C(c4ccc(Cl)cc4)c4ccc(Cl)cc4)cc23)cc1 [Compound 123, 4-[4-({6-[Bis(4-chlorophenyl)methyl]-2-oxo-1,2-dihydroquinolin-4-yl}amino)phenoxy]butanamide] | < 5.00 |
| COC(=O)Cc1ccc(Nc2cc(=O)[nH]c3ccc(C(c4ccc(Cl)cc4)c4ccc(Cl)cc4)cc23)cc1 [Compound 124, Methyl [4-({6-[bis(4-chlorophenyl)methyl]-2-oxo-1,2-dihydroquinolin-4-yl}amino)phenyl]acetate] | < 5.00 |
| O=C(O)Cc1ccc(Nc2cc(=O)[nH]c3ccc(C(c4ccc(Cl)cc4)c4ccc(Cl)cc4)cc23)cc1 [Compound 125, [4-({6-[Bis(4-chlorophenyl)methyl]-2-oxo-1,2-dihydroquinolin-4-yl}amino)phenyl]acetic acid] | < 5.00 |
| NCCCCNc1cc(C(c2ccc(Cl)cc2)c2ccc(Cl)cc2)cc2c(NC3CCN(S(=O)(=O)C(F)(F)F)CC3)cc(=O)[nH]c12 [Compound 141, 8-((4-aminobutyl)amino)-6-(bis(4-chlorophenyl)methyl)-4-((1-((trifluoromethyl)sulfonyl)piperidin-4-yl)amino)quinolin-2(1H)-one] | < 5.00 |
| CCS(=O)(=O)N1CCC(Nc2cc(=O)[nH]c3ccc(C(c4ccc(Cl)cc4)c4ccc(Cl)cc4)cc23)CC1 [Compound #56, 6-(bis(4-chlorophenyl)methyl)-4-((1-(ethylsulfonyl)piperidin-4-yl)amino)quinolin-2(1H)-one] | < 5.00 |
| O=c1cc(NC2CCN(c3ccccc3)CC2)c2cc(C(c3ccc(Cl)cc3)c3ccc(Cl)cc3)ccc2[nH]1 [Compound #60, 6-[bis(4-chlorophenyl)methyl]-4-[(1-phenylpiperidin-4-yl)amino]quinolin-2-ol] | < 5.00 |
| O=c1cc(NCc2ccc(C(F)(F)F)nc2)c2cc(C(c3ccc(Cl)cc3)c3ccc(Cl)cc3)ccc2[nH]1 [Compound #70, 6-(bis(4-chlorophenyl)methyl)-4-(((6-(trifluoromethyl)pyridin-3-yl)methyl)amino)quinolin-2(1H)-one] | < 5.00 |
| O=c1cc(NC2CCCCC2)c2cc(C(c3ccc(Cl)cc3)c3ccc(Cl)cc3)ccc2[nH]1 [Compound #71, 6-(bis(4-chlorophenyl)methyl)-4-(cyclohexylamino)quinolin-2(1H)-one] | < 5.00 |
| O=c1cc(NC2CCN(CC(F)(F)F)CC2)c2cc(C(c3ccc(Cl)cc3)c3ccc(Cl)cc3)ccc2[nH]1 [Compound #77, 6-(bis(4-chlorophenyl)methyl)-4-((1-(2,2,2-trifluoroethyl)piperidin-4-yl)amino)quinolin-2(1H)-one] | < 5.00 |
| O=c1cc(NC2CCN(S(=O)(=O)N3CCCC3)CC2)c2cc(C(c3ccc(Cl)cc3)c3ccc(Cl)cc3)ccc2[nH]1 [Compound #81, 6-(bis(4-chlorophenyl)methyl)-4-((1-(pyrrolidin-1-ylsulfonyl)piperidin-4-yl)amino)quinolin-2(1H)-one] | < 5.00 |
| NC(=O)Cn1c(=O)cc(NC2CCN(S(=O)(=O)C(F)(F)F)CC2)c2cc(C(c3ccc(Cl)cc3)c3ccc(Cl)cc3)ccc21 [Compound #90, 2-(6-(bis(4-chlorophenyl)methyl)-2-oxo-4-((1-((trifluoromethyl)sulfonyl)piperidin-4-yl)amino)quinolin-1 (2H)-yl)acetamide] | < 5.00 |
